Test results as given in ChEMBL document CHEMBL1147737, “4-(3'alpha15'beta-dihydroxy-5'beta-estran-17'beta-yl)furan-2-methyl alcohol: an anti-digoxin agent with a novel mechanism of action” (2006).
The source made the active and inactive calls. No cut-off for these calls is given here.

Tests used:
[1] = system: Sodium/potassium-transporting ATPase (Cavia porcellus); experiment: Binding affinity to CS receptor on K(+)-ATPase; conditions: filed as antagonist
[2] = system: Sodium/potassium-transporting ATPase (Cavia porcellus); experiment: Binding affinity to CS receptor on Na+-ATPase; conditions: filed as antagonist
Cavia porcellus [3] = species on record: Cavia porcellus; experiment: Inhibition of 1 uM digoxin-induced increase in the force of contraction in guinea pig papillary muscle at 10 uM; type: functional
NT2 = experiment: Inhibition of digoxin-induced transferrin accumulation in NT2 cells; type: functional, cell-based; conditions: Homo sapiens
Cavia porcellus [4] = species on record: Cavia porcellus; experiment: Inhibition of digoxin-induced arrhythmias in guinea pig papillary muscle; type: functional

Activity [1]: Antagonist | Activity [2]: Antagonist
SMILES: C[C@]12CC[C@H]3[C@@H](CC[C@@H]4C[C@H](O)CC[C@@H]43)[C@@H]1[C@H](O)C[C@@H]2c1coc(CO)c1
Activity (Cavia porcellus [3]): Active | Activity (NT2): Active | Activity (Cavia porcellus [4]): Active
